Measured values: US9771360B2, “Cyano-substituted imidazo[1,2-A]pyridinecarboxamides and their use” (Bayer Pharma Aktiengesellschaft, priority 2014, dated 2017)

Target: T1, recombinant guanylate cyclase reporter cell line (Rattus norvegicus, UniProt P19686+P20595)
T1 construct: expressed in transfected cells
T1 sequence (P20595 1-619): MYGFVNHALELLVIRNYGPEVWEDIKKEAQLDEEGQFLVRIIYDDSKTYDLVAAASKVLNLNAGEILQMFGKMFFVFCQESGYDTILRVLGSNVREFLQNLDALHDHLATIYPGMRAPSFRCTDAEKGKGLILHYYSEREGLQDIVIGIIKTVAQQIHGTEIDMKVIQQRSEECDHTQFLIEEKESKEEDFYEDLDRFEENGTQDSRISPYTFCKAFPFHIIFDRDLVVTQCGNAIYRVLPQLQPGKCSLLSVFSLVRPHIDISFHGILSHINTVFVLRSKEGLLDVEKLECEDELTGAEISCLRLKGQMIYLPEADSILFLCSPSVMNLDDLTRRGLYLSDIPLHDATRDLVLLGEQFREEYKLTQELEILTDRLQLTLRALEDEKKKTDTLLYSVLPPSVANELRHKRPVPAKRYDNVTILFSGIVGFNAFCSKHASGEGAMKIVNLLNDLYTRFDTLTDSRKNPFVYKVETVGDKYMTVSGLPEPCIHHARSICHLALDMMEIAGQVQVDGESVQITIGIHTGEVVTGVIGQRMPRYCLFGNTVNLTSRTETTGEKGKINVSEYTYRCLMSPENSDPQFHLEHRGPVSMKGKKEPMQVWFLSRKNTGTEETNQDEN
T1 sequence (P19686 1-690): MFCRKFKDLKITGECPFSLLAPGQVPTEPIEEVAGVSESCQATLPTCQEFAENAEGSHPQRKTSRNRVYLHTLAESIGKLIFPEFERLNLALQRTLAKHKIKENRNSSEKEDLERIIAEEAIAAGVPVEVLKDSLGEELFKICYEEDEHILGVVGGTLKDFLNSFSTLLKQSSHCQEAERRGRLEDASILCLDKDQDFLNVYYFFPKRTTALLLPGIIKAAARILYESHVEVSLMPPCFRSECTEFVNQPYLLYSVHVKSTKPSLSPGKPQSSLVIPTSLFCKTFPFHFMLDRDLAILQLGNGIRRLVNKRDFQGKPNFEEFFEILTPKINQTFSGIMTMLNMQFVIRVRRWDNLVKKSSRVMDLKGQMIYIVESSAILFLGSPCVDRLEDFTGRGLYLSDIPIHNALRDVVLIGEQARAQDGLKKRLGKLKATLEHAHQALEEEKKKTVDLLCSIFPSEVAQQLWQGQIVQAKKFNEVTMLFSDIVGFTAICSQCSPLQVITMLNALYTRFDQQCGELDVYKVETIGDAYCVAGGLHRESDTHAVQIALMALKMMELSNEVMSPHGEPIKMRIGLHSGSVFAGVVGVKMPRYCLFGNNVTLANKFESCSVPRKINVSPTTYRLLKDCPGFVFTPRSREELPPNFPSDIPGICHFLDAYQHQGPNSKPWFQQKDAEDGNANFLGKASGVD
Test: Effect on a recombinant guanylate cyclase reporter cell line (B-2)
Assay type: cell-based
Conditions: MEC = minimum effective concentration; in some cases mean values from individual determinations
Procedure: B-2. Effect on a Recombinant Guanylate Cyclase Reporter Cell Line
The cellular activity of the compounds according to the invention is determined using a recombinant guanylate cyclase reporter cell line, as described in F. Wunder et al., Anal. Biochem. 339, 104-112 (2005).
Representative MEC values (MEC=minimum effective concentration) for the compounds of the invention are shown in the table below (in some cases as mean values from individual determinations): […]

| MEC [µM] | Compound |
| --- | --- |
| 1 | CCC(CC#N)NC(=O)c1c(C)nc2c(OCc3c(F)cccc3F)cc(C)cn12 (racemic) [Example 13, rac-N-(1-cyanobutan-2-yl)-8-[(2,6-difluorobenzyl)oxy]-2,6-dimethylimidazo[1,2-a]pyridine-3-carboxamide] |
| 1 | Cc1cc(OCc2c(F)cccc2F)c2nc(C)c(C(=O)Nc3[nH]ncc3C#N)n2c1 [Example 33, N-(4-cyano-1H-pyrazol-5-yl)-8-[(2,6-difluorobenzyl)oxy]-2,6-dimethylimidazo[1,2-a]pyridine-3-carboxamide] |
| 10 | Cc1nc2c(OCc3ncccc3F)cccn2c1C(=O)NC(C#N)c1ccc(Cl)cc1 (racemic) [Example 21, rac-N-[(4-chlorophenyl)(cyano)methyl]-8-[(3-fluoropyridin-2-yl)methoxy]-2-methylimidazo[1,2-a]pyridine-3-carboxamide] |
| 3 | COc1ccc(F)c(COc2cc(C)cn3c(C(=O)NC(C#N)c4ccc(Cl)cc4)c(C)nc23)c1F (racemic) [Example 22, rac-N-[(4-chlorophenyl)(cyano)methyl]-8-[(2,6-difluoro-3-methoxybenzyl)oxy]-2,6-dimethylimidazo[1,2-a]pyridine-3-carboxamide] |
| 1 | Cc1cc(OCc2c(F)cccc2F)c2nc(C)c(C(=O)NCC(N)CC#N)n2c1 (single isomer, unassigned) [Example 42, ent-N-(2-Amino-3-cyanopropyl)-8-[(2,6-difluorobenzyl)oxy]-2,6-dimethylimidazo[1,2-a]pyridine-3-carboxamide] |
| 0.1 | Cc1cc(OCc2c(F)cccc2F)c2nc(C)c(C(=O)NC(C)(C#N)C3CC3)n2c1 (racemic) [Example 6, rac-N-(1-cyano-1-cyclopropylethyl)-8-[(2,6-difluorobenzyl)oxy]-2,6-dimethylimidazo[1,2-a]pyridine-3-carboxamide] |
| 1 | Cc1nc2c(OCC3CCCCC3)cccn2c1C(=O)NC(C#N)c1ccc(Cl)cc1 (racemic) [Example 20, rac-N-[(4-chlorophenyl)(cyano)methyl]-8-(cyclohexylmethoxy)-2-methylimidazo[1,2-a]pyridine-3-carboxamide] |
| 1 | Cc1cc(OCc2c(F)cccc2F)c2nc(C)c(C(=O)NCC(N)CCCC#N)n2c1 (single isomer, unassigned) [Example 47, ent-N-(2-Amino-5-cyanopentyl)-8-[(2,6-difluorobenzyl)oxy]-2,6-dimethylimidazo[1,2-a]pyridine-3-carboxamide] |
| 0.3 | Cc1cc(OCc2c(F)cccc2F)c2nc(C)c(C(=O)NC3(C#N)CC3)n2c1 [Example 4, N-(1-cyanocyclopropyl)-8-[(2,6-difluorobenzyl)oxy]-2,6-dimethylimidazo[1,2-a]pyridine-3-carboxamide] |
| 10 | N#CC(NC(=O)c1cnc2c(OCc3c(F)cccc3F)cccn12)c1ccc(Cl)cc1 (racemic) [Example 18, rac-N-[(4-chlorophenyl)(cyano)methyl]-8-[(2,6-difluorobenzyl)oxy]imidazo[1,2-a]pyridine-3-carboxamide] |
| 1 | Cc1nc2c(OCc3c(F)cccc3F)cc(Cl)cn2c1C(=O)NC(C#N)c1ccc(Cl)cc1 (racemic) [Example 29, rac-6-chloro-N-[(4-chlorophenyl)(cyano)methyl]-8-[(2,6-difluorobenzyl)oxy]-2-methylimidazo[1,2-a]pyridine-3-carboxamide] |
| 0.3 | Cc1cc(OCc2c(F)cccc2F)c2nc(C)c(C(=O)Nc3ccccc3CC#N)n2c1 [Example 35, N-[2-(cyanomethyl)phenyl]-8-[(2,6-difluorobenzyl)oxy]-2,6-dimethylimidazo[1,2-a]pyridine-3-carboxamide] |
| 3 | Cc1cc(OCc2c(F)ccc(C3CC3)c2F)c2nc(C)c(C(=O)NCC3CCC(C#N)CC3)n2c1 (centres unmarked) [Example 40, N-[(4-Cyanocyclohexyl)methyl]-8-[(3-cyclopropyl-2,6-difluorobenzyl)oxy]-2,6-dimethylimidazo[1,2-a]pyridine-3-carboxamide] |
| 10 | Cc1cc(OC(C)c2c(F)cccc2F)c2nc(C)c(C(=O)NC(C#N)c3ccc(Cl)cc3)n2c1 (centres unmarked) [Example 26, N-[(4-chlorophenyl)(cyano)methyl]-8-[1-(2,6-difluorophenyl)ethoxy]-2,6-dimethylimidazo[1,2-a]pyridine-3-carboxamide] |
| 0.3 | Cc1cc(OCc2c(F)cccc2F)c2nc(C)c(C(=O)NC(C)C#N)n2c1 (single isomer, unassigned) [Example 16, ent-N-(1-Cyanoethyl)-8-[(2,6-difluorobenzyl)oxy]-2,6-dimethylimidazo[1,2-a]pyridine-3-carboxamide] |
| 1 | Cc1cc(OCc2c(F)cccc2F)c2nc(C)c(C(=O)NCC(N)CC#N)n2c1 (single isomer, unassigned) [Example 43, ent-N-(2-Amino-3-cyanopropyl)-8-[(2,6-difluorobenzyl)oxy]-2,6-dimethylimidazo[1,2-a]pyridine-3-carboxamide] |
| 0.55 | Cc1cc(OCc2c(F)cccc2F)c2nc(C)c(C(=O)NC(C)C#N)n2c1 (racemic) [Example 1, rac-N-(1-Cyanoethyl)-8-[(2,6-difluorobenzyl)oxy]-2,6-dimethylimidazo[1,2-a]pyridine-3-carboxamide] |
| 1 | Cc1cc(OCc2c(F)cncc2F)c2nc(C)c(C(=O)NC(C#N)c3ccc(Cl)cc3)n2c1 (racemic) [Example 30, rac-N-[(4-chlorophenyl)(cyano)methyl]-8-[(3,5-difluoropyridin-4-yl)methoxy]-2,6-dimethylimidazo[1,2-a]pyridine-3-carboxamide] |
| 1 | COc1cc(OCc2c(F)cccc2F)c2nc(C)c(C(=O)NC(C#N)c3ccc(Cl)cc3)n2c1 (racemic) [Example 28, rac-N-[(4-chlorophenyl)(cyano)methyl]-8-[(2,6-difluorobenzyl)oxy]-6-methoxy-2-methylimidazo[1,2-a]pyridine-3-carboxamide] |
| 1 | Cc1cc(OCc2ncccc2F)c2nc(C)c(C(=O)NC(C#N)c3ccc(Cl)cc3)n2c1 (racemic) [Example 19, rac-N-[(4-chlorophenyl)(cyano)methyl]-8-[(3-fluoropyridin-2-yl)methoxy]-2,6-dimethylimidazo[1,2-a]pyridine-3-carboxamide] |
